Data reported in patent US20200331850A1, “NOVEL SULFONAMIDE CARBOXAMIDE COMPOUNDS” (Inflazome Limited, priority 2017, published 2020).
pIC50: −log10 of the molar value. Where a name gives a salt, the structure may show the parent alone.

Assays:
[1] = PK protocol: pharmacokinetic parameters in male Sprague Dawley rats (intravenous or oral); type: in vivo; conditions: plasma, rat; for Vd: read-out: Vdss
Experimental: Pharmacokinetic parameters were determined in male Sprague Dawley rats (Charles River, UK, 250-350 g; or Vital River Laboratory Animal Technology Co Ltd, Beijing, China, 7-9 weeks old). Animals were individually housed during the study and maintained under a 12 h light/dark cycle.
For intravenous administration, compounds were formulated as a solution in water or DMSO:PBS [10:90] in 2 mL/kg dosing volume and administered via tail vein. For oral administration, compounds were formulated as a solution in DMSO:water [10:90] in 5 mL/kg dosing volume and administered orally.
Serial blood samples (about 120-300 μL) were taken from each animal at each of 8 time-points post dose (0.083, 0.25, 0.5, 1, 2, 4, 8 and 24 h) or at each of 12 time-points post dose (0.03, 0.1, 0.17, 0.25, 0.5, 1, 2, 4, 6, 8, 12 and 24 h) or pre-dose and at each of 9 time-points post dose (0.25, 0.5, 1, 2, 4, 6, 8, 12 and 24 h). Samples were held on ice for no longer than 30 minutes before centrifugation (10,000 rpm (8,385 g) for 3 minutes; or 5,696 rpm (3,000 g) for 15 minutes) for plasma generation. Plasma was frozen on dry ice prior to bioanalysis. PK parameters were generated from LC-MS/MS data using Dotmatics or Phoenix WinNonlin 6.3 software.

NLRP3 = NLRP3 (Homo sapiens, UniProt Q96P20); assay: Human whole blood IL1β release assay (LPS + nigericin, AlphaLisa IL-1β); type: cell-based; set-up: Plate out 80 μl of whole blood containing 1βg/ml of LPS in 96-well, clear bottom cell culture plate; from tissue; host or cells: human whole blood from healthy donors, LPS-primed and nigericin-stimulated; conditions: NLRP3 inhibitory activity in human whole blood, IL-1β release, 10 μM nigericin, read-out: HWB IC50
NLRP3, sequence (Q96P20 whole entry): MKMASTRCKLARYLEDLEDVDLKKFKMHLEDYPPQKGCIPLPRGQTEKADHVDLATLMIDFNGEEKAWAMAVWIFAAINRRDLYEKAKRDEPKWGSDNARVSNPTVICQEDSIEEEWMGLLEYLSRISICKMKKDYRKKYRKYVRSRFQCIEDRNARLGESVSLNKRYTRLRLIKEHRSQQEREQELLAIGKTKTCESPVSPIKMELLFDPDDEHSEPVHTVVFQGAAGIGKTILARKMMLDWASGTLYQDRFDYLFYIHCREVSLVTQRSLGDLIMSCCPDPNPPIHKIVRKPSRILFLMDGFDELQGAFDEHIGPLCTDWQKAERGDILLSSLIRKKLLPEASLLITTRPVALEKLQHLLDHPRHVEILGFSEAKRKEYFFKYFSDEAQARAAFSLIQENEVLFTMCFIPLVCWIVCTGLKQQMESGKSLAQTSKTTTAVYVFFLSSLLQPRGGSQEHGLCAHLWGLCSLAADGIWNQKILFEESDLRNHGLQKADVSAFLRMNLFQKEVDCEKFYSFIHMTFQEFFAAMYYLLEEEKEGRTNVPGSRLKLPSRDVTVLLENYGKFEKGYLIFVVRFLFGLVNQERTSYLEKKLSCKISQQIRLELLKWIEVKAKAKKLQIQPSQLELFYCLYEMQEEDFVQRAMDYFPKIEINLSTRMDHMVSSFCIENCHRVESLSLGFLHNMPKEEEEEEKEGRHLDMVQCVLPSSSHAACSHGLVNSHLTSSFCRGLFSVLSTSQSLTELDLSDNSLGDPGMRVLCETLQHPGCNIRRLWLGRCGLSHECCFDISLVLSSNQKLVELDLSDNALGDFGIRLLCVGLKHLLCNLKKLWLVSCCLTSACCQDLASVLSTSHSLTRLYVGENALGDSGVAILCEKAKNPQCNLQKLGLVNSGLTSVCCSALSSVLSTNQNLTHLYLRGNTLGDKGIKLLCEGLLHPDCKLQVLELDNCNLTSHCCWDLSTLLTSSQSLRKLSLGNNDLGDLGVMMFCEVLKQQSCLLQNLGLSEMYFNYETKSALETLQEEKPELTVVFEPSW

[2] = intravenous administration, 1 mg/kg

AUC [1, 2]	clearance [1, 2]	half-life [1, 2]	Vd [1, 2]	pIC50 (NLRP3)	AUC ([1]; oral administration, 3 mg/kg)	CL/F ([1]; oral administration, 3 mg/kg)	Cmax ([1]; oral administration, 3 mg/kg)	Tmax ([1]; oral administration, 3 mg/kg)	bioavailability ([1]; oral administration, 3 mg/kg)	half-life ([1]; oral administration, 3 mg/kg)	SMILES
2350 ng·h/mL	7.1 mL/min/kg	66 min	0.49 L/kg	≥ 6.00							CN(C)CCCS(=O)(=O)NC(=O)Nc1c2c(cc3c1CCC3)CCC2 [Example 8, 3-(Dimethylamino)-N-((1,2,3,5,6,7-hexahydro-s-indacen-4-yl)carbamoyl)propane-1-sulfonamide, potassium salt]
591 ng·h/mL	28.2 mL/min/kg	54 min	0.55 L/kg	≥ 6.00							CCN(CC)CCCS(=O)(=O)NC(=O)Nc1c(-c2cccnc2)cc(F)cc1C(C)C [Example 37, 3-(Diethylamino)-N-((4-fluoro-2-isopropyl-6-(pyridin-3-yl)phenyl)carbamoyl)propane-1-sulfonamide]
2780 ng·h/mL	6 mL/min/kg	78 min	0.53 L/kg	≥ 6.00							O=C(Nc1c2c(cc3c1CCC3)CCC2)NS(=O)(=O)CCN1CCC1 [Example 29, 2-(Azetidin-1-yl)-N-((1,2,3,5,6,7-hexahydro-s-indacen-4-yl)carbamoyl)ethane-1-sulfonamide, Potassium Salt]
1180 ng·h/mL	14.2 mL/min/kg	90 min	0.79 L/kg	≥ 6.00	2270 ng·h/mL	22.6 mL/min/kg	819 ng/mL	25.2 min	64.1%	108 min	CCN(CC)CCCS(=O)(=O)NC(=O)Nc1c2c(cc3c1CCC3)CCC2 [Example 3, 3-(Diethylamino)-N-((1,2,3,5,6,7-hexahydro-s-indacen-4-yl)carbamoyl)propane-1-sulfonamide, potassium salt]
